Test results as given in publication PMC9482650, “Quantitative fragmentomics allow affinity mapping of interactomes” (Nature Communications, 2022).
Ends that are not written are not given here. * marks the point of attachment. Biotin = O=C1N[C@H]2[C@H](CS[C@H]2CCCCC(=O)*)N1; ttds = NCCCOCCOCCOCCCNC(=O)CCC(=O)*

Tested on: HaCat cell extract preys
Assay: PBM-AP-MS, PBM peptide baits
Type: binding, human
Description: HEK293T and HeLa cells were authenticated and found 100% identity to ATCC cat. CRL-3216 and ATCC cat. CCL-2, respectively. Jurkat and HaCat cell lines were not authenticated (original source: ECACC and Deutsches Krebsforschungszentrum DKFZ, respectively). HeLa cells were grown in DMEM (1 g/L glucose, Gibco) medium completed with 5% FCS and 40 μg/mL gentamicin, diluted every 3rd/4th day 1/10. HaCat cells were grown in DMEM (1 g/L glucose, Gibco) medium completed with 10% FCS and 40 μg/mL gentamicin, diluted every 3rd/4th day 1/4. Jurkat cells were grown in RPMI (Gibco) medium completed with 10% FCS and 40 μg/mL gentamicin, diluted every 3rd/4th day 1/12. All cells were kept at 37 °C and 5% CO2. For proteomics analyses cells were seeded on T-175 flasks. After they reached confluency, adherent cells were washed with PBS once and collected by scraping with ice-cold lysis buffer (Hepes-KOH pH 7.5 50 mM, NaCl 150 mM, Triton X-100 1%, complete EDTA-free protease inhibitor cocktail 1×, EDTA 2 mM, TCEP 5 mM, glycerol 10%). Jurkat cells were collected by 1000 g × centrifugation, washed once with PBS, then collected by 1000 g × 5 min centrifugation again and lysed in ice-cold lysis buffer. Lysates were sonicated 4 × 20 s with 1 s long pulses on ice, then incubated rotating at 4 °C for 30 min. Lysates were centrifuged at 12,000 rpm 4 °C for 20 min and supernatant was kept for further analysis. Concentration determination was carried out by standard Bradford method (Bio-Rad Protein Assay Dye Reagent #5000006) using BSA (MP BIomedicals #160069) as control on a Bio-Rad SmartSpec 3000 spectrophotometer instrument.
For PBM-AP-MS experiments, 30 μl streptavidin resin was mixed with biotin or peptide at 50–60 μM concentration in 6–6.5 resin volume for 60 min to achieve resin saturation. For PDZ-AP-MS experiments, 30 μl streptavidin resin was mixed with biotinylated MBP or MBP-PDZ at 40-50 μM concentration in >1000× resin volume for 60 min to achieve resin saturation. After saturation, resins were washed a single time (ten resin volume, holdup buffer), and were depleted with biotin (1 mM biotin, 5–10 resin volume, 10 min). Finally, resins were washed two times. 0.5 ml 2 mg/ml cell lysate was added to the dry resin (1 mg total input) and were incubated at 4 °C for 2 h. Then, the beads were washed three times with 10 resin volume buffer containing: 50 mM TRIS pH 8.5, 150 mM NaCl, 1% TritonX-100, 10× complete EDTA-free protease inhibitor cocktail, 2 mM EDTA, 1 mM TCEP. Then, the beads were washed two times with ten resin volume buffer containing: 50 mM TRIS pH 8.5, 150 mM NaCl, 1 mM TCEP. Finally, captured protein was eluted from the resin in two steps and the eluted fractions were pooled. For each elution the beads were incubated for 30 min with three resin volume buffer containing: 20 mM TRIS pH8.5, 100 mM NaCl, 500 μM TCEP, 8 M Urea. Between each step, the beads were separated by mild centrifugation and the supernatant was removed by gentle pipetting.
The samples were precipitated with TCA 20% overnight at 4 °C and centrifuged at 14,000 rpm for 10 min at 4 °C. The protein pellets were washed twice with 1 mL cold acetone and air dried. The protein extracts were solubilized in urea 8 M, reduced with 5 mM TCEP for 30 min, and alkylated with 10 mM iodoacetamide for 30 min in the dark. Double digestion was performed at 37 °C with 500 ng endoproteinase Lys-C for 4 h, followed by fourfold dilution and an overnight digestion with 500 ng trypsin. Peptide mixtures were then desalted on C18 spin-column and dried on Speed-Vacuum.
Samples were analyzed using an Ultimate 3000 nano-RSLC (Thermo Scientific, San Jose California) coupled in line with a LTQ-Orbitrap ELITE mass spectrometer via a nano-electrospray ionization source (Thermo Scientific, San Jose California). […]

| Substance | Enrichment values compared to biotin controls (prey AHNAK2, PBM peptide bait) | Enrichment values compared to biotin controls (prey AHNAK, PBM peptide bait) | Enrichment values compared to biotin controls (prey DLG1, PBM peptide bait) | Enrichment values compared to biotin controls (prey GORASP2, PBM peptide bait) | Enrichment values compared to biotin controls (prey InaDl, PBM peptide bait) | Enrichment values compared to biotin controls (prey LAP2, PBM peptide bait) | Enrichment values compared to biotin controls (prey LIN7C, PBM peptide bait) | Enrichment values compared to biotin controls (prey MAGI3, PBM peptide bait) | Enrichment values compared to biotin controls (prey MPP5, PBM peptide bait) | Enrichment values compared to biotin controls (prey MPP6, PBM peptide bait) | Enrichment values compared to biotin controls (prey MPP7, PBM peptide bait) | Enrichment values compared to biotin controls (prey NHERF2, PBM peptide bait) | Enrichment values compared to biotin controls (prey NHERF, PBM peptide bait) | Enrichment values compared to biotin controls (prey PDLIM1, PBM peptide bait) | Enrichment values compared to biotin controls (prey PDLIM2, PBM peptide bait) | Enrichment values compared to biotin controls (prey PDLIM4, PBM peptide bait) | Enrichment values compared to biotin controls (prey PDLIM5, PBM peptide bait) | Enrichment values compared to biotin controls (prey PDLIM7, PBM peptide bait) | Enrichment values compared to biotin controls (prey PTPN3, PBM peptide bait) | Enrichment values compared to biotin controls (prey SCRIB, PBM peptide bait) | other results |
| --- | --- | --- | --- | --- | --- | --- | --- | --- | --- | --- | --- | --- | --- | --- | --- | --- | --- | --- | --- | --- | --- |
| HPV18E6 | 0.8 | 1.4 | 2.3 | 9.0 | 8.0 | 0.9 | 215.4 | 7.4 | 11.3 | 5.0 | 48.3 | 1.8 | 2.5 | 3.2 | 0.8 | 1.0 | 0.7 | 0.5 | 1.7 | 0.6 | Enrichment values compared to biotin controls (prey SNTB2, PBM peptide bait): 15.4; Enrichment values compared to biotin controls (prey SNX27, PBM peptide bait): 0.641; Enrichment values compared to biotin controls (prey SYNJ2BP, PBM peptide bait): 58.4; Enrichment values compared to biotin controls (prey TJP1, PBM peptide bait): 8.8; Enrichment values compared to biotin controls (prey TJP2, PBM peptide bait): 1.8; Enrichment values compared to biotin controls (prey TX1B3, PBM peptide bait): 1.6 |
| HPV30E6 ({Biotin-ttds}-RHTTSTETAV) | 1.2 | 1.4 | 3.4 | 0.566 | 0.8 | 1.6 | 207.8 | 2.1 | 1.9 | 1.8 | 42.8 | 1.1 | 2.3 | 2.3 | 1.2 | 1.3 | 0.9 | 0.658 | 1.3 | 0.8 | Enrichment values compared to biotin controls (prey SNTB2, PBM peptide bait): 9.0; Enrichment values compared to biotin controls (prey SNX27, PBM peptide bait): 0.9; Enrichment values compared to biotin controls (prey SYNJ2BP, PBM peptide bait): 21.9; Fold changes HaCat, SYNJ2BP (prey SYNJ2BP, PBM peptide bait): 21.9; Enrichment values compared to biotin controls (prey TJP1, PBM peptide bait): 3.8; Enrichment values compared to biotin controls (prey TJP2, PBM peptide bait): 0.9; Enrichment values compared to biotin controls (prey TX1B3, PBM peptide bait): 0.9 |
| HPV35E6 ({Biotin-ttds}-SKPTRRETEV) | 0.845 | 0.7 | 5.3 | 0.7 | 0.6 | 0.849 | 269.9 | 4.3 | 0.7 | 0.8 | 30.8 | 0.665 | 0.215 | 0.569 | 1.6 | 1.0 | 1.1 | 0.422 | 0.9 | 3.1 | Enrichment values compared to biotin controls (prey SNTB2, PBM peptide bait): 7.5; Enrichment values compared to biotin controls (prey SNX27, PBM peptide bait): 3.3; Enrichment values compared to biotin controls (prey SYNJ2BP, PBM peptide bait): 25.2; Fold changes HaCat, SYNJ2BP (prey SYNJ2BP, PBM peptide bait): 25.2; Enrichment values compared to biotin controls (prey TJP1, PBM peptide bait): 1.3; Enrichment values compared to biotin controls (prey TJP2, PBM peptide bait): 1.8; Enrichment values compared to biotin controls (prey TX1B3, PBM peptide bait): 3.3 |
